# System: vesicular stomatitis virus particles (VSV) pseudotyped with EboV Zaire GP
# Assay: microbe, parasite or virus in culture
# Type: cell-based
# Conditions: Vesicular stomatitis virus
row,SMILES,IC50
1,"O=C(CC12CC3CC(CC(C3)C1)C2)NCC(=O)N1CCN(Cc2cc(Cl)ccc2Br)CC1 [Compound 1351, 2-((1R,3R,5S)-Adamantan-1-yl)-N-(2-(4-(2-bromo-5-chlorobenzyl)piperazin-1-yl)-2-oxoethyl)acetamide]",1.1 µM
2,"O=C(CC12CC3CC(CC(C3)C1)C2)NCC(=O)N1CCN(Cc2cc(Br)ccc2Cl)CC1 [Compound 1338, 2-((1R,3R,5S)-Adamantan-1-yl)-N-(2-(4-(5-bromo-2-chlorobenzyl)piperazin-1-yl)-2-oxoethyl)acetamide]",0.082 µM
3,"O=C(CNC(=O)C12CC3CC(C1)CC(c1ccc(O)c([N+](=O)[O-])c1)(C3)C2)N1CCN(Cc2ccccc2OCc2ccc(Br)cc2)CC1 [Compound 1805, (1s,3r,5R,7S)—N-(2-(4-(2-((4-bromobenzyl)oxy)benzyl)piperazin-1-yl)-2-oxoethyl)-3-(4-hydroxy-3-nitrophenyl)adamantane-1-carboxamide]",0.6 µM
4,O=C(CC1CCC(F)(F)CC1)NCC(=O)N1CCN(Cc2cccc3ccncc23)CC1 [Compound 1427],2.45 µM
5,O=C(CC1CCC(F)(F)CC1)NCC(=O)N1CCN(Cc2cc(F)ccc2OCc2ccc3nonc3c2)CC1 [Compound 1456],0.19 µM
6,"COC(=O)c1ccc(COc2ccccc2CN2CCN(C(=O)CNC(=O)CC34CC5CC(C3)CC(C(=O)O)(C5)C4)CC2)cc1 [Compound 1277, (1s,3r,5R,7S)-3-(2-((2-(4-(2-((4-(Methoxycarbonyl)benzyl)oxy)benzyl)piperazin-1-yl)-2-oxoethyl)amino)-2-oxoethyl)adamantane-1-carboxylic acid]",> 2 µM
7,"O=C(NCC(=O)N1CCN(Cc2cc(Cl)cc(F)c2O)CC1)C1CC12CCC(F)(F)CC2 (stereo not drawn) [Compound 1404, N-(2-(4-(5-chloro-3-fluoro-2-hydroxybenzyl)piperazin-1-yl)-2-oxoethyl)-6,6-difluorospiro[2.5]octane-1-carboxamide]",0.63 µM
8,"O=C(Nc1ccccc1)Nc1ncc(Cl)cc1CN1CCN(C(=O)CNC(=O)C2CC23CCC(F)(F)CC3)CC1 (stereo not drawn) [Compound 1392, N-(2-(4-((5-Chloro-2-(3-phenylureido)pyridin-3-yl)methyl)piperazin-1-yl)-2-oxoethyl)-6,6-difluorospiro[2.5]octane-1-carboxamide]",1 µM
9,"Nc1ccc(Cl)cc1CN1CCN(C(=O)CNC(=O)CC23CC4CC(CC(C4)C2)C3)CC1 [Compound 1321, 2-((1R,3R,5S)-Adamantan-1-yl)-N-(2-(4-(2-amino-5-chlorobenzyl)piperazin-1-yl)-2-oxoethyl)acetamide]",0.09 µM
10,CN(C)c1ccc(CN2CCN(C(=O)CNC(=O)CC34CC5CC(CC(C5)C3)C4)CC2)cc1Cl [Compound 1251],1.7 µM
11,"COC(=O)c1ccc(COc2ccc(Cl)cc2CN2CCN(C(=O)CNC(=O)CC3CCC(F)(F)CC3)CC2)cc1 [Compound 1333, Methyl 4-((4-chloro-2-((4-((2-(4,4-difluorocyclohexyl)acetyl)glycyl)piperazin-1-yl)methyl)phenoxy)methyl)benzoate]",0.015 µM
12,"O=C(NCC(=O)N1CCN(Cc2cc(Cl)cc3cccnc23)CC1)C1CC12CCC(F)(F)CC2 (stereo not drawn) [Compound 1405, N-(2-(4-((6-Chloroquinolin-8-yl)methyl)piperazin-1-yl)-2-oxoethyl)-6,6-difluorospiro[2.5]octane-1-carboxamide]",0.07 to 0.26 µM
13,"CCC1(CC)CC1C(=O)NCC(=O)N1CCN(Cc2cc(Cl)ccc2O)CC1 (stereo not drawn) [Compound 1399, N-(2-(4-(5-Chloro-2-hydroxybenzyl)piperazin-1-yl)-2-oxoethyl)-2,2-diethylcyclopropane-1-carboxamide]",0.22 µM
14,[2H]C([2H])(c1cc(Cl)ccc1NCc1ccc(C#N)cn1)N1CCN(C(=O)CNC(=O)[C@@H]2CC23CCC(F)(F)CC3)CC1 [Compound 1584],0.03 µM
15,COC(=O)c1ccc(COc2ccc(Cl)cc2CN2CCN(C(=O)CNC(=O)CC34CC5CC(CC(C5)C3)C4)CC2)cc1 [Compound 1118],0.001 µM
16,O=C(CC1CCC(F)(F)CC1)NCC(=O)N1CCN(Cc2ccc(F)c(Cl)c2F)CC1 [Compound 1408],4 µM
17,"O=C(CC12CC3CC(CC(C3)C1)C2)NCC(=O)N1CCN(Cc2cc(Cl)ccc2O)CC1 [Compound 1249, 2-((1R,3R,5S)-Adamantan-1-yl)-N-(2-(4-(5-chloro-2-hydroxybenzyl)piperazin-1-yl)-2-oxoethyl)acetamide]",0.2 µM
18,"COC(=O)c1ccc(COc2ccc(F)cc2CN2CCN(C(=O)CNC(=O)CC3CCC(F)(F)CC3)CC2)cc1 [Compound 1335, Methyl 4-((2-((4-((2-(4,4-difluorocyclohexyl)acetyl)glycyl)piperazin-1-yl)methyl)-4-fluorophenoxy)methyl)benzoate]",0.018 µM
19,"CS(=O)(=O)c1ccc(COc2ccc(Cl)cc2CN2CCN(C(=O)CNC(=O)C3CC34CCCCC4)CC2)cc1 (stereo not drawn) [Compound 1539, Spiro[2.5]octane-1-carboxylic acid (2-{4-[5-chloro-2-(4-methanesulfonyl-benzyloxy)-benzyl]-piperazin-1-yl}-2-oxo-ethyl)-amide]",0.1 µM
20,"CCC1(CC)CC1C(=O)NCC(=O)N1CCN(Cc2cc(Cl)ccc2N)CC1 (stereo not drawn) [Compound 1411, N-(2-(4-(2-amino-5-chlorobenzyl)piperazin-1-yl)-2-oxoethyl)-2,2-diethylcyclopropane-1-carboxamide]",0.14 µM

row,SMILES,IC50
1,"Nc1cc(Cl)cc(CN2CCN(C(=O)CNC(=O)CC3CCC(F)(F)CC3)CC2)c1 [Compound 1385, N-(2-(4-(3-Amino-5-chlorobenzyl)piperazin-1-yl)-2-oxoethyl)-2-(4,4-difluorocyclohexyl)acetamide]",2.2 µM
2,O=C(CC12CC3CC(C1)CC(n1cncn1)(C3)C2)NCC(=O)N1CCN(Cc2ccccc2OCc2ccc(Br)cc2)CC1 [Compound 1246],< 2 µM
3,"O=C(CC1CCC(F)(F)CC1)NCC(=O)N1CCN(Cc2cc(Br)ccc2O)CC1 [Compound 1400, N-(2-(4-(5-Bromo-2-hydroxybenzyl)piperazin-1-yl)-2-oxoethyl)-2-(4,4-difluorocyclohexyl)acetamide]",0.67 µM
4,"Nc1cc(Cl)cc(CN2CCN(C(=O)CNC(=O)C3CC34CCC(F)(F)CC4)CC2)c1 (stereo not drawn) [Compound 1388, N-(2-(4-(3-Amino-5-chlorobenzyl)piperazin-1-yl)-2-oxoethyl)-6,6-difluorospiro[2.5]octane-1-carboxamide]",0.5 µM
5,"COC(=O)COc1ccc(Cl)cc1CN1CCN(C(=O)CNC(=O)CC23CC4CC(CC(C4)C2)C3)CC1 [Compound 1302, Methyl 2-(2-((4-((2-((1R,3R,5S)-adamantan-1-yl)acetyl)glycyl)piperazin-1-yl)methyl)-4-chlorophenoxy)acetate]",> 2 µM
6,"COC(=O)c1ccc(COc2ccc(Cl)cc2CN2CCN(C(=O)CNC(=O)C3CC3(F)F)CC2)cc1 (stereo not drawn) [Compound 1357, Methyl 4-((4-chloro-2-((4-((2,2-difluorocyclopropane-1-carbonyl)glycyl)piperazin-1-yl)methyl)phenoxy)methyl)benzoate]",0.5 µM
7,"Nc1ccc(CN2CCN(C(=O)CNC(=O)CC3CCC(F)(F)CC3)CC2)cc1Cl [Compound 1387, N-(2-(4-(4-Amino-3-chlorobenzyl)piperazin-1-yl)-2-oxoethyl)-2-(4,4-difluorocyclohexyl)acetamide]",> 5 µM
8,"O=C(CC1CCC(F)(F)CC1)NCC(=O)N1CCN(Cc2cc(Cl)ccc2NS(=O)(=O)C2CC2)CC1 [Compound 1379, N-(2-(4-(5-Chloro-2-(cyclopropanesulfonamido)benzyl)piperazin-1-yl)-2-oxoethyl)-2-(4,4-difluorocyclohexyl)acetamide]",~2.2 µM
9,COC(=O)c1ccc(COc2ccccc2CN2CCN(C(=O)CNC(=O)CC(C)(C)c3ccccc3)CC2)cc1 [Compound 1279],1.5 µM
10,"O=C(CC1CCC(F)(F)CC1)NCC(=O)N1CCN(Cc2cc(Cl)cc3cn[nH]c23)CC1 [Compound 1406, N-(2-(4-((5-Chloro-JH-indazol-7-yl)methyl)piperazin-1-yl)-2-oxoethyl)-2-(4,4-difluorocyclohexyl)acetamide]",0.46 µM
11,"COC(=O)c1ccc(COc2ccc(Cl)cc2CN2CCN(C(=O)CNC(=O)C(F)(F)C(F)F)CC2)cc1 [Compound 1358, Methyl 4-((4-chloro-2-((4-((2,2,3,3-tetrafluoropropanoyl)glycyl)piperazin-1-yl)methyl)phenoxy)methyl)benzoate]",0.2 µM
12,"COC(=O)c1ccc(COc2ccccc2CN2CCN(C(=O)CNC(=O)C3CC34CCCCC4)CC2)cc1 (stereo not drawn) [Compound 1316, Methyl 4-((2-((4-((spiro[2.5]octane-1-carbonyl)glycyl)piperazin-1-yl)methyl)phenoxy)methyl)benzoate]",0.07 µM
13,"O=C(CC12CC3CC(CC(C3)C1)C2)NCC(=O)N1CCN(Cc2cc(F)cc(F)c2O)CC1 [Compound 1325, 2-((1R,3R,5S)-Adamantan-1-yl)-N-(2-(4-(3,5-difluoro-2-hydroxybenzyl)piperazin-1-yl)-2-oxoethyl)acetamide]",1 µM
14,COC(=O)c1ccc(COc2ccc(F)cc2CN2CCN(C(=O)CNC(=O)CC34CC5CC(CC(C5)C3)C4)CC2)cc1 [Compound 1112],< 2 µM
15,CS(=O)(=O)c1ccc(Oc2cc(Cl)cc(CN3CCN(C(=O)CNC(=O)C4CC45CCC(F)(F)CC5)CC3)c2)cc1 (stereo not drawn) [Compound 1461],0.15 µM
16,O=C(CC12CC3CC(CC(Cl)(C3)C1)C2)NCC(=O)N1CCN(Cc2ccccc2OCc2ccc(Br)cc2)CC1 [Compound 1243],0.5 µM
17,"Nc1ncc(Cl)cc1CN1CCN(C(=O)CNC(=O)CC23CC4CC(CC(C4)C2)C3)CC1 [Compound 1304, 2-((1R,3R,5S)-Adamantan-1-yl)-N-(2-(4-((2-amino-5-chloropyridin-3-yl)methyl)piperazin-1-yl)-2-oxoethyl)acetamide]",> 1.5 µM
18,"O=C(CC12CC3CC(CC(C3)C1)C2)NCC(=O)N1CCN(Cc2cc(Br)ccc2F)CC1 [Compound 1337, 2-((1R,3R,5S)-Adamantan-1-yl)-N-(2-(4-(5-bromo-2-fluorobenzyl)piperazin-1-yl)-2-oxoethyl)acetamide]",1.2 µM
19,"C#Cc1ccc(F)c(CN2CCN(C(=O)CNC(=O)CC34CC5CC(CC(C5)C3)C4)CC2)c1 [Compound 1352, 2-((1R,3R,5S)-Adamantan-1-yl)-N-(2-(4-(5-ethynyl-2-fluorobenzyl)piperazin-1-yl)-2-oxoethyl)acetamide]",1.7 µM

# From patent US11629139B2 (priority 2017, dated 2023)
